Data from article PMC3233689 (The Journal of neuroscience : the official journal of the …, 2011).

Tests used:
[1] = system: RDL receptor F206-F3Phe; details: Hill coefficient, GABA
[2] = system: RDL receptor Y254F2-Phe; details: Hill coefficient, GABA
[3] = molecular target: T1, RDL receptor (WT) (Drosophila melanogaster, UniProt P25123); assay: GABA-induced currents, voltage clamp of Xenopus oocytes expressing wild type RDL; format: cell-based; details: Hill coefficient, mean ± SEM
T1 sequence (P25123 45-606): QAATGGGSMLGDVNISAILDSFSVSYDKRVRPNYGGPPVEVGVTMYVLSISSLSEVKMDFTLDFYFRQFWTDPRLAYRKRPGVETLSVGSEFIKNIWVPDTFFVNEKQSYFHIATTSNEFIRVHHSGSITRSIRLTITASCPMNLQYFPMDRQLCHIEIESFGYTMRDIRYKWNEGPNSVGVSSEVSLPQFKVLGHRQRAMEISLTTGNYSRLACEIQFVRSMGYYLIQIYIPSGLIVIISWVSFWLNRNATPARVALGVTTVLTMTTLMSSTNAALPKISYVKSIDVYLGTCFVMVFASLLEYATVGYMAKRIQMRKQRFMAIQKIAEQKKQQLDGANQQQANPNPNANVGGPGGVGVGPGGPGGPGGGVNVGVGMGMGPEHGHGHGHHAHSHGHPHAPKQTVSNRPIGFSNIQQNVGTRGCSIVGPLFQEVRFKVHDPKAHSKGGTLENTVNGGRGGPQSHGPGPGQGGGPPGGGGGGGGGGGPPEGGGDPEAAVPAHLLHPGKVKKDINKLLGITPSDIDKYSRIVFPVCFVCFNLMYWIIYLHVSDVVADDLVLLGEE

[4] = system: GABAC receptor; details: GABA-activated GABAC receptor; ref Lummis et al., 2005; cited from earlier work
[5] = molecular target: RDL receptor F206Y (Drosophila melanogaster, UniProt P25123, F206Y); assay: GABA-induced currents in oocytes, RDL F206Y; format: cell-based
Sequence of RDL receptor F206Y (P25123 45-606 F206Y): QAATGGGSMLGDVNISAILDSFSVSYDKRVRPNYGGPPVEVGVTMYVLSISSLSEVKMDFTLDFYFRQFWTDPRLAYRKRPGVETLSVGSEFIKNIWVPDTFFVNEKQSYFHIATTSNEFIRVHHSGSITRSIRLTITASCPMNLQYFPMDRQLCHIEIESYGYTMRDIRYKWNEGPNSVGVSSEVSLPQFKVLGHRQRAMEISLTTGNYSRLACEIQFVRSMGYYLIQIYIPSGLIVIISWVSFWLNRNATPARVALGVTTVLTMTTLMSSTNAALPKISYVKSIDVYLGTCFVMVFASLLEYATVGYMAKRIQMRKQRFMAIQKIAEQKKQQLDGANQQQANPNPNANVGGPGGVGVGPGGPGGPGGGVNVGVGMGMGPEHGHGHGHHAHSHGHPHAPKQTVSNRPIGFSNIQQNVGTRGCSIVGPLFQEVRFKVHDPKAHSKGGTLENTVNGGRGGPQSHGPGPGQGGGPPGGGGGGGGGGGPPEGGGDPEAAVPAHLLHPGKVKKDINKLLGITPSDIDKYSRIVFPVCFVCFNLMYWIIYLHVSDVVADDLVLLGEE

[6] = system: GABAA receptor; details: GABA-activated GABAA receptor; ref Padgett et al., 2007; cited from earlier work
[7] = molecular target: RDL receptor F206Y/Y254F (Drosophila melanogaster, UniProt P25123, F206Y/Y254F); assay: GABA-induced currents in oocytes, RDL F206Y/Y254F; format: cell-based; details: Hill coefficient
Sequence of RDL receptor F206Y/Y254F (P25123 45-606 F206Y/Y254F): as the sequence (P25123 45-606 F206Y) above, with Y210F counted along it

[8] = system: RDL receptor F206-F2Phe; details: Hill coefficient, GABA
[9] = system: RDL receptor F206-FPhe; details: Hill coefficient, GABA
[10] = molecular target: RDL receptor Y254F (Drosophila melanogaster, UniProt P25123, Y254F); assay: GABA-induced currents in oocytes, RDL Y254F; format: cell-based
Sequence of RDL receptor Y254F (P25123 45-606 Y254F): as the sequence (P25123 45-606 F206Y) above, with Y162F, Y210F counted along it

[11] = system: RDL receptor Y254-FPhe; details: Hill coefficient, GABA
[12] = system: RDL receptor Y254F3-Phe; details: Hill coefficient, GABA
[13] = molecular target: RDL receptor F206A (Drosophila melanogaster, UniProt P25123, F206A); assay: GABA-induced currents in oocytes, RDL F206A; format: cell-based; details: Phe206 substituted with Ala, compared to WT
Sequence of RDL receptor F206A (P25123 45-606 F206A): as the sequence (P25123 45-606 F206Y) above, with Y162A counted along it

[14] = molecular target: RDL receptor Y254A (Drosophila melanogaster, UniProt P25123, Y254A); assay: GABA-induced currents in oocytes, RDL Y254A; format: cell-based; details: Tyr254Ala receptors, GABA up to 100 mM
Sequence of RDL receptor Y254A (P25123 45-606 Y254A): as the sequence (P25123 45-606 F206Y) above, with Y162F, Y210A counted along it

[15] = system: RDL mutant (TAG) mRNA without aminoacylated tRNA; format: cell-based, Drosophila; details: 5 mM GABA; mutant mRNA alone or with tRNA-dCA with no amino acid attached
[16] = molecular target: RDL receptor F146A (Drosophila melanogaster, UniProt P25123, F146A); assay: GABA-induced currents in oocytes, RDL F146A; format: cell-based
Sequence of RDL receptor F146A (P25123 45-606 F146A): as the sequence (P25123 45-606 F206Y) above, with F102A, Y162F counted along it

[17] = system: RDL receptor F146F3Phe; details: Hill coefficient, GABA
[18] = system: RDL receptor; details: homomers in Xenopus oocytes; ref Zhang et al., 1994; cited from earlier work

In the case of NCCCC(=O)O [GABA], the nH [1] is reported as 2.0 ± 0.4, the nH [2] is reported as 1.1 ± 0.2 and the nH [3] is reported as 1.4 ± 0.2. For the same compound, the “slope of fluorination plot” value [4] was 0.21, the nH ([5]; Hill coefficient, F206Y) was 2.2 ± 0.3 and the “decrease in EC50 compared to WT” value ([5]; Phe206Tyr) was about 200 fold. The “slope of fluorination plot” value [6] was 0.29, the nH [7] was 1.9 ± 0.5 and the nH [8] was 1.8 ± 0.3. The nH [9] was 1.8 ± 0.3, the nH ([10]; Hill coefficient, Y254F) was 2.1 ± 0.4 and the “increase in EC50” value ([10]; Tyr254 substituted with Phe, compared to WT) was about 4 fold. For the same compound, the nH [11] was 1.3 ± 0.4, the nH [12] was 1.2 ± 0.3 and the “increase in EC50” value [13] was about 50 fold. For the same compound, the “response to GABA” value [14] was “did not respond”, the “currents in response to GABA” value [15] was “No currents” and the nH ([16]; Hill coefficient, GABA, F146A) was 2.1 ± 0.2. For the same compound, the “increase in GABA EC50” value ([16]; Phe146 substituted with Ala, compared to WT) was under 4 fold and the nH [17] was 1.4 ± 0.4.

In the case of picrotoxin, the “inhibition of RDL receptors” value [18] is listed as “inhibited”.
